“Also recorded” adds a separate entry of the source. Counter-ions that a name gives are not always drawn.
Assays:
DA2 = target: T1, DA2 (Oryctolagus cuniculus, UniProt G1T1Q0); experiment: DA2-agonist activity on electrically stimulated rabbit ear artery; settings: inhibition of contraction induced by electric stimulation; for EC50: read-out: DA2 rabbit ear artery pD2 (-log EC50) (converted)
T1 construct: Transversal sections (2-3 mm) of rabbit ear artery were suspended in isolated organ baths; from tissue; host or cells: rabbit ear artery (transversal sections)
Experimental: DA2 -agonist activity was evaluated as follows. Transversal sections (2-3 mm) of rabbit ear artery were suspended in isolated organ baths containing Krebs-Henseleit solution added with corticosterone (30 μM), desipramine (0.1 μM) and EDTA (10 μM).
The preparation, subjected to a traction of 1 g and to an electric stimulation with field pulses every 5 minutes (10 Hz, 1 msec., 30-60 V, 500 msec. duration) were left stabilize for about 2 hours.
Each preparation was submitted to three increasing concentrations allowing the recovery of the basal conditions before the subsequent administration.

D1 receptor [1] = target: T2, D1 receptor (Rattus norvegicus, UniProt P18901); experiment: biochemical; settings: [3H]-SCH23390; rat striatal membranes; Table 2; read-out: Binding D1 rat striatum Ki
Experimental: (§1) The tissues were homogenized in 50 mM Tris/HCl buffer, pH 7.4 (1:100 weight/volume).
(§2) The homogenate was centrifuged and the pellet was resuspended, centrifuged again and resuspended in 50 mM Tris/HCl buffer pH 7.4 containing 120 mM NaCl, 5mM KCl, 2mM CaCl2 and 1 mM MgCl2.

D2 receptor [2] = target: T3, D2 receptor (Rattus norvegicus, UniProt P61169); experiment: biochemical; settings: [3H]-spiperone; rat striatal membranes; Table 2; read-out: Binding D2 rat striatum Ki
Experimental: as §1, §2
The standard incubation conditions (volume 1 ml) for the assay in which [^3 H]-SCH23390 was used were as follows: 50 mM Tris/HCl buffer (pH 7.4), 0.2 nM [^3 H]-SCH23390, a membrane preparation (3 mg/ml corresponding to 130-150 μg proteins/ml), incubation temperature 37° C. and incubation time 15 minutes. The standard incubation conditions (volume 2 ml) for the assay in which [^3 H]-spiperone was used were as follows: 50 mM Tris/HCl buffer (pH 7.4), 0.2 nM [^3 H]-spiperone, a membrane preparation (3 mg/ml corresponding to 130-150 μg proteins/ml), incubation temperature 37° C. and incubation time 15 minutes.

D1 receptor [3] = target: T2, D1 receptor; experiment: Receptor binding, D1 receptor, [3H]-SCH23390, rat striatal membranes (part A); parameters: membranes from striatal tissues were prepared; from tissue; host or cells: rat striatum (membranes); species or system rat (Sprague-Dawley); settings: for Ki: [3H]-SCH23390, rat striatal membranes, Table 1, read-out: Affinity Ki for D1 receptor
[4] = in words; cited from earlier work
D2 receptor [5] = target: T3, D2 receptor; experiment: Receptor binding, D2 receptor, [3H]-domperidone, rat striatal membranes (part A); parameters: membranes from striatal tissues were prepared; from tissue; host or cells: rat striatum (membranes); species or system rat (Sprague-Dawley); settings: for Ki: [3H]-domperidone, rat striatal membranes, Table 1, read-out: Affinity Ki for D2 receptor
Experimental: as §1, §2
For D2 -receptor binding studies [^3 H]-domperidone (0.3 nM) was incubated in a volume of 1000 μl containing buffer and a membrane preparation as above described. In addition bovine serum albumine (BSA) (0.01%) was added. The mixture was incubated at 37° C. for 30 minutes for each concentration of the tested compounds.

dopaminergic receptors = settings: in words; cited from earlier work
SHR rats = experiment: In vivo antihypertensive activity, systolic blood pressure by tail cuff in conscious SHR rats; parameters: species or system rat (SHR)
Experimental: Male SHR rats, 3-4 months old, fasted 16 hours before the experiment were used. Systolic blood pressure (SBP) and heart rate (HR) were recorded by tail cuff method in conscious animals by means of a BP Recorder (W+W Basile, Italy). Before every pressure determination animals were maintained at 37° C. for 10 minutes.
SBP and HR values were recorded before and at various times up to seven hours after treatment with the tested compounds.
The compounds were administered orally by gavage, in a volume of 10 ml/kg, at doses between 10 and 160 mg/kg. For the administration, the compounds were suspended in carboxymethylcellulose (CMC) 0.5% in water and additioned with Tween 80 (0.3 ml/10 ml of CMC).
The obtained results, expressed as ED30mmHg (mg/kg p.o.) that is the dose causing a decrease of 30 mmHg from the basal value of SBP (about 15% decrease) are the following: […]

T1 sequence (G1T1Q0 1-443): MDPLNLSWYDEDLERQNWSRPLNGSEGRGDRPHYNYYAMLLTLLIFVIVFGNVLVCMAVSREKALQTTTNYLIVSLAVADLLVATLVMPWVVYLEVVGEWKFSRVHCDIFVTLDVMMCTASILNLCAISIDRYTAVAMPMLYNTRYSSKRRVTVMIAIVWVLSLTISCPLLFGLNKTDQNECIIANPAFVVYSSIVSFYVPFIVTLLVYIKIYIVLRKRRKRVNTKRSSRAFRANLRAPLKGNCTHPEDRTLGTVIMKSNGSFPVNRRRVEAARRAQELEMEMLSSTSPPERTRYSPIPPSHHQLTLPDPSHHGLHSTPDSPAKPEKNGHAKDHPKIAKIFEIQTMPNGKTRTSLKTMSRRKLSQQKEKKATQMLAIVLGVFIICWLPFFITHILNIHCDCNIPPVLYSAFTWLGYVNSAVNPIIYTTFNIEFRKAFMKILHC
T3 sequence (P61169 whole entry): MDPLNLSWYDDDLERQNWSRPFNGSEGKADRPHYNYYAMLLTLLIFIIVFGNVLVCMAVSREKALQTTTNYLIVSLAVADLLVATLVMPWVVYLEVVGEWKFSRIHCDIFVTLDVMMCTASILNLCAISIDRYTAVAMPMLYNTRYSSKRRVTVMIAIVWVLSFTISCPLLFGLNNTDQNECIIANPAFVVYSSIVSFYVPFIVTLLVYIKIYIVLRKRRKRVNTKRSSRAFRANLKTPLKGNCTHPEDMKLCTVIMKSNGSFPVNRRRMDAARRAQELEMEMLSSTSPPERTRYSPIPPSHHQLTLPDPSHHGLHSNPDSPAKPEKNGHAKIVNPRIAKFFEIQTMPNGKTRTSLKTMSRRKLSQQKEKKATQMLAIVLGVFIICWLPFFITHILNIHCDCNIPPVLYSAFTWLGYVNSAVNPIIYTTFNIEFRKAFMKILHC
T2 sequence (P18901 whole entry): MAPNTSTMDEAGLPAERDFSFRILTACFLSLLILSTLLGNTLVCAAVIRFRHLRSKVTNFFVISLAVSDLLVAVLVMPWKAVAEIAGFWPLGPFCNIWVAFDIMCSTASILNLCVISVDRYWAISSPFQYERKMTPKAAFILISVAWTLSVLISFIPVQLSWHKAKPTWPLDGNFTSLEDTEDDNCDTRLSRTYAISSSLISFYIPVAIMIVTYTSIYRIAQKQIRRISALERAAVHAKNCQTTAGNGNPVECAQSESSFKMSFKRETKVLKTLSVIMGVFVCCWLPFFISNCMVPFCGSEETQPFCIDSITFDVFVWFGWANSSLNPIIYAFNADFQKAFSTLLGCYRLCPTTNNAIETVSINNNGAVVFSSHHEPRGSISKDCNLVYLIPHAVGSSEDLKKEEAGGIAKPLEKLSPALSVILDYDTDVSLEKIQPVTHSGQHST

Row | EC50 (DA2) [nM] | Ki (D1 receptor [1]) [nM] | Ki (D2 receptor [2]) [nM] | SMILES | further results
1 | 1350 | 11700 | 630 | CCCCN(CCCCCCN(C)CCOc1ccccc1OC)[C@@H]1CCc2cc(O)c(O)cc2C1 [Compound 11, (R)-N-butyl-N-[2-(6,7-dihydroxy-1,2,3,4-tetrahydro)naphthyl]-N'-methyl-N'-[2-(2-methoxyphenoxy)ethyl]-1,6-hexanediamine dihydrochloride] | 
2 | 447 | 3200 | 1700 | Oc1ccc(CCNCCCCCCNCCc2ccccc2)cc1O [Dopexamine, dopexamine, reference compound] | Ki (D1 receptor [3]): 2230 nM; Oral absorption (literature) [4]: not absorbed when administered by oral route; Ki (D2 receptor [5]): 145 nM; Agonist activity on dopaminergic receptors relative to dopamine (dopaminergic receptors): less active than dopamine
3 | 29.5 | 560 | 86 | CCCCN(CCCCCCNCCOc1ccccc1OC)[C@H]1CCc2c(ccc(O)c2O)C1 [Compound 3, (S)-N-butyl-N-[6-[2-(2-methoxyphenoxy)ethylamino]hexyl]-5,6-dihydroxy-1,2,3,4-tetrahydro-2-naphthylamine dihydrochloride] | 
4 | 1050 | 22000 | 190 | CCCCN(CCCNCCOc1ccc(C)cc1OC)[C@H]1CCc2c(ccc(O)c2O)C1 [Compound 9, (S)-N-butyl-N-[3-[2-[(2-methoxy-4-methyl)phenoxy]ethylamino]propyl]-5,6-dihydroxyl-1,2,3,4-teyrahydro-2-naphthylamine dihydrochloride] | 
5 |  |  |  | NCCc1ccc(O)c(O)c1 [Dopamine, dopamine] | Oral absorption (literature) [4]: lack of absorption by opal route; also recorded: not absorbed when administered by oral route; DA2 rabbit ear artery pD2 (-log EC50) (DA2): 7.40
6 | 6.92 | 120 | 5 | CCCN(CCCCCCNCCOc1ccc(C)cc1Cl)[C@H]1CCc2c(ccc(O)c2O)C1 [Compound 5, (S)-N-propyl-N-[6-[2-[(2-chloro-4-methyl)phenoxy]ethylamino]-hexyl]-5,6-dihydroxy-1,2,3,4-tetrahydro-2-naphthylamine dihydrochloride] | 
7 | 4.37 | 315 | 8.4 | CCCN(CCCCCCNCCOc1ccccc1OC)[C@@H]1CCc2cc(O)c(O)cc2C1 [Compound 2, (R)-N-propyl-N-[6-[2-(2-methoxyphenoxy)ethylamino]hexyl]-6,7-dihydroxyl-1,2,3,4-tetrahydro-2-naphthylamino dihydrochloride] | 
8 | 6030 | 2800 | 260 | CCCCN(CCCN(C)CCOc1ccc(C)cc1Cl)[C@@H]1CCc2cc(O)c(O)cc2C1 [Compound 14, (R)-N-butyl-N-[2-(6.,7-dihydroxy-l,2,3,4-tetrahydro)naphthyl]-N'-methyl-N'-[2-[(2-chloro-4-methyl)phenoxy]ethyl]-1.3-propanediamine dihydrochloride] | 
9 | 2.14 | 1100 | 1.1 | CCCN(CCCNCCOc1ccccc1OC)[C@H]1CCc2c(ccc(O)c2O)C1 [Compound 7, (S)-N-propyl-N-[3-[2-[(2-methoxyphenoxy)ethylamino]propyl]-5,6-dihydroxy-1,2,3,4-tetrahydro-2-naphthylaminedihydrochloride] | 
10 | 457 | 180 | 8.3 | CCCN(CCCCCCN(C)CCOc1ccc(C)cc1Cl)[C@H]1CCc2c(ccc(O)c2O)C1 [Compound 12, (S)-N-[2-(5,6-dihydroxy-1,2,3,4-tetrahydro)naphthyl]-N-propyl-N'-methyl-N'-[2-[(2-chloro-4-methyl]phenoxyl]ethyl]-1,6-hexanediamine dihydrochloride] | 
11 | 44.7 | 2650 | 16 | CCCN(CCCNCCOc1ccccc1Cl)[C@@H]1CCc2cc(O)c(O)cc2C1 [Compound 8, (R)-N-propyl-N-[3-[2-[(2-chlorophenoxy)ethylamino]propyl]-6,7-dihydroxy-1,2,3,4-tetrahydro-2-naphthylaminedihydrochloride] | 
12 | 3.39 | 410 | 5.5 | CCCN(CCCCCCN(C)CCOc1ccccc1OC)[C@H]1CCc2c(ccc(O)c2O)C1 [Compound 10, (S)-N-[2-(5,6-dihydroxy-1,2,3,4-tetrahydro)naphthyl]-N-propyl-N'-methyl-N'-[2-(2-methoxyphenoxy)ethyl]-1,6-hexanediamine dihychloride] | 
13 | 513 | 700 | 80 | CCCCN(CCCCCCNCCOc1ccccc1Cl)[C@H]1CCc2c(ccc(O)c2O)C1 [Compound 4, (S)-N-butyl-N-[6-[2-2-(chlorophenoxy)ethylamino]hexyl]-5,6-dihydroxy-1,2,3,4-tetrahydro-2-naphthylamine dihydrochloride] | 
14 | 4.07 | 3600 | 9.8 | CCCN(CCCN(C)CCOc1ccccc1OC)[C@H]1CCc2c(ccc(O)c2O)C1 [Compound 13, (S)-N-propyl-N-[2-(5,6-dihydroxy-1,2,3,4-tetrahydro)naphthyl]-N'-methyl-N'-[2-(2-methoxyphenoxy)ethyl]-1,3-propanediamine dihydrochloride] | 
15 | 1.07 | 90 | 0.5 | CCCN(CCCCCCNCCOc1ccccc1OC)[C@H]1CCc2c(ccc(O)c2O)C1 [Compound 1, S-(-)-N-propyl-N-[6-(2-(2-methoxyphenoxy)ethylamino]hexyl]-5,6-dihydroxy-1,2,3,4-tetrahydro-2-naphthylamine dihydrchloride] | ED (30 mmHg) (SHR rats; Rattus norvegicus, oral gavage, about 15% decrease of SBP, read-out: ED30mmHg, dose causing a decrease of 30 mmHg from the basal value of SBP): 22.9 mg/kg; Duration of the antihypertensive effect (SHR rats; oral): about 4 hours; Ki (D1 receptor [3]): 195 nM; Potency on D1 receptors, times more potent than dopamine and dopexamine (D1 receptor [3]; vs dopamine and dopexamine): about 10 times; Ki (D2 receptor [5]): 4 nM; Potency on D2 receptors, times more potent than dopamine and dopexamine (D2 receptor [5]; vs dopamine and dopexamine): about 100 times

Source: patent US5407956A, “2-amino-1,2,3,4-tetrahydronaphthalene derivatives active on the cardiovascular system, processes for their preparation and pharmaceutical compositions containing them” (Zambon Group S.p.A., priority 1992, dated 1995)
